Molecular target: human full-length MKNK1 (Homo sapiens (Human), UniProt Q9BUB5, T344D)
Test: MKNK1 kinase high ATP assay (TR-FRET)
Assay type: biochemical
Conditions: 2 mM ATP, 15 min preincubation with enzyme, GST-MKNK1 (T344D)
Procedure: MKNK1 Kinase High ATP Assay
MKNK1-inhibitory activity at high ATP of compounds of the present invention after their preincubation with MKNK1 was quantified employing the TR-FRET-based MKNK1 high ATP assay as described in the following paragraphs.
A recombinant fusion protein of Glutathione-S-Transferase (GST, N-terminally) and human full-length MKNK1 (amino acids 1-424 and T344D of accession number BAA 19885.1), expressed in insect cells using baculovirus expression system and purified via glutathione sepharose affinity chromatography, was purchased from Carna Biosciences (product no 02-145) and used as enzyme. As substrate for the kinase reaction the biotinylated peptide biotin-Ahx-IKKRKLTRRKSLKG (SEQ ID NO: 1) (C-terminus in amide form) was used, which can be purchased e.g. from the company Biosyntan (Berlin-Buch, Germany)
For the assay 50 nL of a 100 fold concentrated solution of the test compound in DMSO was pipetted into a black low volume 384 well microtiter plate (Greiner Bio-One, Frickenhausen, Germany), 2 μL of a solution of MKNK1 in aqueous assay buffer [50 mM HEPES pH 7.5, 5 mM MgCl2, 1.0 mM dithiothreitol, 0.005% (v/v) Nonidet-P40 (Sigma)] was added and the mixture was incubated for […] at 22° C. to allow pre-binding of the test compounds to the enzyme before the start of the kinase reaction. Then the kinase reaction was started by the addition of 3 μL of a solution of adenosine-tri-phosphate (ATP, 3.3 mM=>final conc. in the 5 μL assay volume is 2 mM) and substrate (0.1 μM=>final conc. in the 5 μL assay volume is 0.06 μM) in assay buffer and the resulting mixture was incubated for a reaction time of 30 min at 22° C. The concentration of MKNK1 was adjusted depending of the activity of the enzyme lot and was chosen appropriate to have the assay in the linear range, typical concentrations were in the range of 0.003 μg/mL. The reaction was stopped by the addition of 5 μL of a solution of TR-FRET detection reagents (5 nM streptavidine-XL665 [Cisbio Bioassays, Codolet, France] and 1 nM anti-ribosomal protein S6 (pSer236)-antibody from Invitrogen [#44921G] and 1 nM LANCE EU-W1024 labeled ProteinG [Perkin-Elmer, product no. AD0071]) in an aqueous EDTA-solution (100 mM EDTA, 0.1% (w/v) bovine serum albumin in 50 mM HEPES pH 7.5).
The resulting mixture was incubated for 1 h at 22° C. to allow the formation of complex between the phosphorylated biotinylated peptide and the detection reagents. Subsequently the amount of phosphorylated substrate was evaluated by measurement of the resonance energy transfer from the Eu-chelate to the streptavidine-XL. Therefore, the fluorescence emissions at 620 nm and 665 nm after excitation at 350 nm were measured in a TR-FRET reader, e.g. a Rubystar (BMG Labtechnologies, Offenburg, Germany) or a Viewlux (Perkin-Elmer). The ratio of the emissions at 665 nm and at […] was taken as the measure for the amount of phosphorylated substrate. The data were normalised (enzyme reaction without inhibitor=0% inhibition, all other assay components but no enzyme=100% inhibition).

Chain of human full-length MKNK1 (Q9BUB5 other isoform, or with tags, fused parts or gaps T344D): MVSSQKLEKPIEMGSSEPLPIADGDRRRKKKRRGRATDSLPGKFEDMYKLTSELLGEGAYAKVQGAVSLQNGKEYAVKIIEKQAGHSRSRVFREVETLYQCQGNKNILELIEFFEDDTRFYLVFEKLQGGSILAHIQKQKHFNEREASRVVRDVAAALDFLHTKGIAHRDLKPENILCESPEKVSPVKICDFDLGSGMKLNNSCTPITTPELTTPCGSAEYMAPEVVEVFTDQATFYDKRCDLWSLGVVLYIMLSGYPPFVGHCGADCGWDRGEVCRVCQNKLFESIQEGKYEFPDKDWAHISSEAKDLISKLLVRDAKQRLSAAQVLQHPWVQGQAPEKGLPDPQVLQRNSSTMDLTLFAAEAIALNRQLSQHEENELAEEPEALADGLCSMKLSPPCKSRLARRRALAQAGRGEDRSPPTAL

Compound	IC50 [nM]
Cc1cc(Nc2ncnc3c2ncn3CC(=O)O)c(=O)n2c1C(=O)NC21CCCCC1 [Example 48, {6-[(8′-Methyl-1′,5′-dioxo-1′,5′-dihydro-2′H-spiro[cyclohexane-1,3′-imidazo[1,5-a]pyridin]-6′-yl)amino]-9H-purin-9-yl}acetic acid]	29.4
Cc1cc(Nc2ncnc3c2ncn3CC(=O)N(C)C)c(=O)n2c1C(=O)NC21CCCCC1 [Example 49, N,N-Dimethyl-2-{6-[(8′-methyl-1′,5′-dioxo-1′,5′-dihydro-2′H-spiro[cyclohexane-1,3′-imidazo[1,5-a]pyridin]-6′-yl)amino]-9H-purin-9-yl}acetamide]	490
Cc1cc(Nc2ncnc3c2ncn3CC(=O)N(C)CCN(C)C)c(=O)n2c1C(=O)NC21CCCCC1 [Example 50]	950
Cc1cc(Nc2ncnc3scnc23)c(=O)n2c1C(=O)NC21CCCCC1 [Example 51, 8′-Methyl-6′-([1,3]thiazolo[5,4-d]pyrimidin-7-ylamino)-2′H-spiro[cyclohexane-1,3′-imidazo[1,5-a]pyridine]-1′,5′-dione]	2.9
Cc1cc(Nc2ncnc3occc23)c(=O)n2c1C(=O)NC21CCCCC1 [Example 52, 6′-(Furo[2,3-d]pyrimidin-4-ylamino)-8′-methyl-2′H-spiro[cyclohexane-1,3′-imidazo[1,5-a]pyridine]-1′,5′-dione]	13
Cc1cc(Nc2ncnc(NC(=O)C3CC3)n2)c(=O)n2c1C(=O)NC21CCCC1 [Example 53, N-{4-[(8′-Methyl-1′,5′-dioxo-1′,5′-dihydro-2′H-spiro[cyclopentane-1,3′-imidazo[1,5-a]pyridin]-6′-yl)amino]-1,3,5-triazin-2-yl}cyclopropanecarboxamide]	2.4
Cc1cc(Nc2ncnc(N)n2)c(=O)n2c1C(=O)NC21CCCC1 [Example 54, 6′-[(4-Amino-1,3,5-triazin-2-yl)amino]-8′-methyl-2′H-spiro[cyclopentane-1,3′-imidazo[1,5-a]pyridine]-1′,5′-dione]	5.7
Cc1cc(Nc2ncnc3[nH]ccc23)c(=O)n2c1C(=O)NC21CCCC1 [Example 55, 8′-Methyl-6′-(7H-pyrrolo[2,3-d]pyrimidin-4-ylamino)-2′H-spiro[cyclopentane-1,3′-imidazo[1,5-a]pyridine]-1′,5′-dione]	0.3
Cc1cc(Nc2ncnc3sccc23)c(=O)n2c1C(=O)NC21CCCC1 [Example 56, 8′-Methyl-6′-(thieno[2,3-d]pyrimidin-4-ylamino)-2′H-spiro[cyclopentane-1,3′-imidazo[1,5-a]pyridine]-1′,5′-dione]	0.1
Cc1cc(Nc2ccnc3[nH]cnc23)c(=O)n2c1C(=O)NC21CCCCC1 [Example 57, 6′-(3H-Imidazo[4,5-b]pyridin-7-ylamino)-8′-methyl-2′H-spiro[cyclohexane-1,3′-imidazo[1,5-a]pyridine]-1′,5′-dione]	6.2
Cc1cc(Nc2ncnc3sc(C(=O)O)cc23)c(=O)n2c1C(=O)NC21CCCC1 [Example 58, 4-[(8′-Methyl-1′,5′-dioxo-1′,5′-dihydro-2′H-spiro[cyclopentane-1,3′-imidazo[1,5-a]pyridin]-6′-yl)amino]thieno[2,3-d]pyrimidine-6-carboxylic acid]	18.8
Cc1cc(Nc2ncnc3sc(C(=O)NCCN(C)C)cc23)c(=O)n2c1C(=O)NC21CCCC1 [Example 59, N-[2-(Dimethylamino)ethyl]-4-[(8′-methyl-1′,5′-dioxo-1′,5′-dihydro-2′H-spiro[cyclopentane-1,3′-imidazo[1,5-a]pyridin]-6′-yl)amino]thieno[2,3-d]pyrimidine-6-carboxamide]	2.7
Cc1cc(Nc2ncnc3sc(C(=O)N(C)CCN(C)C)cc23)c(=O)n2c1C(=O)NC21CCCC1 [Example 60, N-[2-(Dimethylamino)ethyl]-N-methyl-4-[(8′-methyl-1′,5′-dioxo-1′,5′-dihydro-2′H-spiro[cyclopentane-1,3′-imidazo[1,5-a]pyridin]-6′-yl)amino]thieno[2,3-d]pyrimidine-6-carboxamide]	6.3
Cc1cc(Nc2ncnc3sc(C(=O)N4CC(C#N)C4)cc23)c(=O)n2c1C(=O)NC21CCCC1 [Example 61, 1-({4-[(8′-Methyl-1′,5′-dioxo-1′,5′-dihydro-2′H-spiro[cyclopentane-1,3′-imidazo[1,5-a]pyridin]-6′-yl)amino]thieno[2,3-d]pyrimidin-6-yl}carbonyl)azetidine-3-carbonitrile]	5.9
Cc1cc(Nc2ncnc3sc(C(=O)N4CC(NC(=O)OC(C)(C)C)C4)cc23)c(=O)n2c1C(=O)NC21CCCC1 [Example 62, tert-Butyl [1-({4-[(8′-methyl-1′,5′-dioxo-1′,5′-dihydro-2′H-spiro[cyclopentane-1,3′-imidazo[1,5-a]pyridin]-6′-yl)amino]thieno[2,3-d]pyrimidin-6-yl}carbonyl)azetidin-3-yl]carbamate]	4
Cc1cc(Nc2ncnc3sc(C(=O)N4CC[C@@H](N(C)C)C4)cc23)c(=O)n2c1C(=O)NC21CCCC1 [Example 63, 6′-[(6-{[(3R)-3-(Dimethylamino)pyrrolidin-1-yl]carbonyl}thieno[2,3-d]pyrimidin-4-yl)amino]-8′-methyl-2′H-spiro[cyclopentane-1,3′-imidazo[1,5-a]pyridine]-1′,5′-dione]	3.8
Cc1cc(Nc2ncnc3sc(C(=O)N4CCC(N(C)C)CC4)cc23)c(=O)n2c1C(=O)NC21CCCC1 [Example 64, 6′-[(6-{[4-(Dimethylamino)piperidin-1-yl]carbonyl}thieno[2,3-d]pyrimidin-4-yl)amino]-8′-methyl-2′H-spiro[cyclopentane-1,3′-imidazo[1,5-a]pyridine]-1′,5′-dione]	5.5
Cc1cc(Nc2ncnc3sc(C(=O)N4C[C@H]5C[C@@H]4CO5)cc23)c(=O)n2c1C(=O)NC21CCCCC1 [Example 65, 8′-Methyl-6′-({6-[(1R,4R)-2-oxa-5-azabicyclo[2.2.1]hept-5-ylcarbonyl]thieno[2,3-d]pyrimidin-4-yl}amino)-2′H-spiro[cyclohexane-1,3′-imidazo[1,5-a]pyridine]-1′,5′-dione]	5.9
Cc1cc(Nc2ncnc3sc(C(=O)N4C[C@@H]5C[C@H]4CO5)cc23)c(=O)n2c1C(=O)NC21CCCCC1 [Example 66, 8′-Methyl-6′-({6-[(1S,4S)-2-oxa-5-azabicyclo[2.2.1]hept-5-ylcarbonyl]thieno[2,3-d]pyrimidin-4-yl}amino)-2′H-spiro[cyclohexane-1,3′-imidazo[1,5-a]pyridine]-1′,5′-dione]	9
Cc1cc(Nc2ncnc3[nH]cnc23)c(=O)n2c1C(=O)NC21CCCC1 [Example 67, 8′-methyl-6′-(9H-purin-6-ylamino)-2′H-spiro[cyclopentane-1,3′-imidazo[1,5-a]pyridine]-1′,5′-dione]	0.7
Cc1cc(Nc2ncnc3[nH]ncc23)c(=O)n2c1C(=O)NC21CCCC1 [Example 68, 8′-methyl-6′-(1H-pyrazolo[3,4-d]pyrimidin-4-ylamino)-2′H-spiro[cyclopentane-1,3′-imidazo[1,5-a]pyridine]-1′,5′-dione]	1.8
Cc1cc(Nc2ncnc3c2CN(S(C)(=O)=O)C3)c(=O)n2c1C(=O)NC21CCCCC1 [Example 69, 8′-methyl-6′-{[6-(methylsulfonyl)-6,7-dihydro-5H-pyrrolo[3,4-d]pyrimidin-4-yl]amino}-2′H-spiro[cyclohexane-1,3′-imidazo[1,5-a]pyridine]-1′,5′-dione]	144
Cc1cc(Nc2ncnc3c2CN(S(=O)(=O)c2ccccc2)C3)c(=O)n2c1C(=O)NC21CCCCC1 [Example 70, 8′-methyl-6′-{[6-(phenylsulfonyl)-6,7-dihydro-5H-pyrrolo[3,4-d]pyrimidin-4-yl]amino}-2′H-spiro[cyclohexane-1,3′-imidazo[1,5-a]pyridine]-1′,5′-dione]	21.7
Cc1cc(Nc2ncnc3c2CN(S(=O)(=O)C(F)F)C3)c(=O)n2c1C(=O)NC21CCCCC1 [Example 71, 6′-({6-[(difluoromethyl)sulfonyl]-6,7-dihydro-5H-pyrrolo[3,4-d]pyrimidin-4-yl}amino)-8′-methyl-2′H-spiro[cyclohexane-1,3′-imidazo[1,5-a]pyridine]-1′,5′-dione]	59.2
